“And” between values parts separate entries of the source, which are not always exact repeats. Equal entries are not always repeated. Where two headings read alike, the source gives them in different places. Some results are limits rather than exact numbers.

Here are results for two compounds from patent US20250188078A1, “SMALL MOLECULE INHIBITORS OF THE CRL4 UBIQUITIN LIGASE” (Cornell University, priority 2022, published 2025).

Data set [1] concerns CUL4A^low T47D breast cancer cells. In words: Cell killing in CUL4-low T47D cells (CellTiter Glo). As to conditions: Homo sapiens, 192 h, 8 days treatment. The data set is classed as cell-based. (ATP-based viability assays read luminescence as a measure of living cells.)
Data set [2] is described as follows: Pharmacokinetic study: compound concentration in MDA-MB-468 xenograft tumor tissue. The data set is classed as in vivo, mouse. As to conditions: for Tissue concentration: individual tumors. How it is done: Female athymic Nu/J nude mice, 6 weeks old were purchased from the Jackson Laboratory. Mice were housed in laminar air-flow cabinet under specific pathogen-free conditions. 5×10^6 MDA-MB-468 cells in 100 μl diluted BD Matrigel™ Basement Membrane Matrix (BD Bioscience, Matrix:PBS is 1:1) were injected subcutaneously in each flank of mouse. We detected tumors once every four days by fine calipers measurement. When tumor size reached 100 mm^3, mice were randomly grouped and treated with DMSO or 50 mg/kg PA99 compound. The stock solution of compound was 10 mg/ml, which formulated with 10% DMSO, 10% Tween-80 and 80% H2O. PA99 was injected into mouse by intraperitoneal injection ([…]) three times per week. Mouse weights and tumor volumes were measured twice/week. For the pharmacokinetic study, samples were collected after compound injection (30 mins, 1 h, 3 h, 6 h). Four tumor samples were collected at each time point for mass spectrometry analysis to determine the compound concentrations in tumor tissues.

Data set [3] deals with CUL4A^high xenograft and PDX tumors. In words: CUL4A^high xenograft and PDX tumor growth. The settings on record: 50 mg/kg intraperitoneal; breast cancer xenograft and colorectal cancer PDX models, FIGS. 8A-8C. It counts as in vivo, mouse. The protocol:
Measurements were performed according to the following procedure. Mouse body weights were monitored using a scale. Tumors were assessed and volumes measured with fine calipers twice a week. The tumor volumes were calculated with the formula: Volume=(Length×Width^2)/2. Compound PA99 was administered via intraperitoneal doses in an amount of 50 mg/kg every X days, where X is the number of days shown in FIGS. 8A-8C.

Data set [4] deals with DDB1-BPB (Homo sapiens (Human), UniProt Q16531). Put plainly: Surface Plasmon Resonance (SPR) binding to DDB1-BPB. The settings on record: DDB1-BPB immobilized. The text has this: Kd represents dissociation constant, which measures the affinity of small molecule binding to the scaffold DDB1-BPB by Surface Plasmon Resonance (SPR) (https://www.bio-rad.com/webroot/web/pdf/lsr/literature/Bulletin_6414.pdf, hereby incorporated by reference in its entirety) (see Table 1, column 8). To assess the interaction between DDB1-BPB and compounds, a multi-parametric SPR instrument (BioRad ProteON XPR360) was used. DDB1-BPB was immobilized onto the GLH sensor surface in a variety of ways as follows: flow channels were activated in parallel with 1/20 diluted EDC/SNHS. DDB1-BPB was diluted to 0.1 mg/mL in sodium acetate pH 4.5 and directly coupled onto channel for 4 min. Excess reactive esters were blocked with a 5-min injection of 1 M ethanolamine. Mean immobilization levels were 17,000 RU with <2% variation along a strip. One channel was left unmodified to provide an additional reference surface. Next, the binding kinetics of compounds on surfaces was determined in a single injection using a “one-shot” kinetic mode. Typically, compound was prepared as a twofold serial dilution (0, 3.125, 6.25, 12.5, 25, 50 μM) and injected for 60 s at […]. Dissociation was monitored for 800 s. Surfaces were regenerated with multiple 30-s pulses of 60 mM phosphoric acid so that the experiment could be reproduced. All resulting sensor grams were collected and analyzed using the ProteOn manager software.
DDB1-BPB, sequence (Q16531 403-706): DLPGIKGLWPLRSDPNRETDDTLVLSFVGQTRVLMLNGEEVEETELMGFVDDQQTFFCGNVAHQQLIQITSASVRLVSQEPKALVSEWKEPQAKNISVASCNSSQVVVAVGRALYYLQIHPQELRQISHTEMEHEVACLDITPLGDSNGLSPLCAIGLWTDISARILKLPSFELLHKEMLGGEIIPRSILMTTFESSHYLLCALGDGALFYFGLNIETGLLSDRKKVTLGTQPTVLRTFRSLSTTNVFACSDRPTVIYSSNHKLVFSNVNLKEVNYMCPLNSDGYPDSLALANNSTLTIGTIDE

For data set [5], the system named is MCF7 breast cancer cells. In words: Cell killing in MCF7 cells (CellTiter Glo). It counts as cell-based. As to conditions: Homo sapiens, MCF7, 192 h; Table 3, 0 to 20 μM compound, 8 days treatment. The protocol:
CUL4A^high MDA-MB-468, CUL4^low (T47D), and MCF7 breast cancer cells were seeded in 96 well plates separately. Cells were treated with DMSO, or from 0 to 20 μM compound respectively. Replace with fresh medium and compounds every 48 hours. After 8 days treatment, cell viability was examined by CellTiter Glo kit (Promega #7570). First, transfer the appropriate volume (10 ml for Cat. #G7570) of CellTiter-Glo® Buffer into the amber bottle containing CellTiter-Glo® Substrate to reconstitute the lyophilized enzyme/substrate mixture. This forms the CellTiter-Glo® Reagent. Second, add CellTiter-Glo® Reagent in an equal volume (100 μl per well for 96-well plates) to all wells. Mix contents for 2 minutes on an orbital shaker to induce cell lysis. Incubate at room temperature for 15 minutes to stabilize luminescent signal. Then record luminescence. EC50 concentration was calculated by Prism 8 XY analysis nonlinear regression (curve fit-Log(inhibitor) vs response).

Where [6] appears, read: T47D cells, read-out: EC50 CUL4-Low Cells (cell killing).

For `CN(c1ccc(-c2nc(C(=O)O)cc3c2[nH]c2ccc(F)cc23)cc1)S(=O)(=O)c1ccccc1` [PA93], the 50% effective concentration (EC50) in data set [1] (setting [6]) was > 100 µM.
On to `CN(c1ccc(-c2nc(C(=O)O)cc3c2[nH]c2cccc(F)c23)cc1)S(=O)(=O)c1ccccc1` [PA99, 5-fluoro-1-(4-(N-methylphenylsulfonamido)phenyl)-9H-pyrido[3,4-b]indole-3-carboxylic acid], for which the Tissue concentration is 3910 ng/mL and 8.2 μM and 666 ng/mL and 1.4 μM (2×) and 670 ng/mL and 1010 ng/mL and 2.1 μM in data set [2] (30 min after 50 mg/kg intraperitoneal injection); 5780 ng/mL and 12.2 μM and 1790 ng/mL and 3.8 μM and 1230 ng/mL and 2.6 μM and 870 ng/mL and 1.8 μM in data set [2] (1 hr after 50 mg/kg intraperitoneal injection); 1400 ng/mL and 2.9 μM and 1340 ng/mL and 2.8 μM and 392 ng/mL and 0.8 μM and 290 ng/mL and 0.6 μM in data set [2] (3 hr after 50 mg/kg intraperitoneal injection); 419 ng/mL and 0.88 μM and 342 ng/mL and 0.72 μM and 1440 ng/mL and 3.0 μM and 913 ng/mL and 1.9 μM in data set [2] (6 hr after 50 mg/kg intraperitoneal injection). Further, the concentration at 30 min in data set [2] (female, athymic Nu/J nude, mouse, MDA-MB-468 xenograft tumor, intraperitoneal, 50 mg/kg, 30 min, average of four tumors) was 1560 ng/mL and 3.3 µM. Further, the concentration at 1 h in data set [2] (female, athymic Nu/J nude, mouse, MDA-MB-468 xenograft tumor, intraperitoneal, 50 mg/kg, 1 hr, average of four tumors) was 2420 ng/mL and 5.1 µM. In data set [2] (female, athymic Nu/J nude, mouse, MDA-MB-468 xenograft tumor, intraperitoneal, 50 mg/kg, 3 hr, average of four tumors), the concentration at 3 h is 856 ng/mL and 1.8 µM. In addition, in data set [2] (female, athymic Nu/J nude, mouse, MDA-MB-468 xenograft tumor, intraperitoneal, 50 mg/kg, 6 hr, average of four tumors), the concentration at 6 h is 779 ng/mL and 1.6 µM. The Tumor growth entry in data set [3] is listed as “suppression”. The same compound came in with a Kd in data set [4] of 2.13 µM. For the same compound, the EC50 in data set [1] (setting [6]) is 8.27 µM; in data set [1] (T47D, Table 3, 0 to 20 μM compound, read-out: EC50 OF cell killing, T47D), 8.27 µM; in data set [5] it was 19.5 µM.

What is called EC50 is the midpoint of the concentration-response curve. The Kd is the free concentration of one partner at which half of the binding sites on the other are occupied at equilibrium, for simple one-to-one binding.
